From PubChem BioAssay (NCI)
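Interpolation was linear, between the two tested concentrations surrounding the appropriate level; five concentrations were tested over 48 hours in 96-well plates. Abbreviation: GI50, concentration required for 50% inhibition of growth. TGI marks complete inhibition of growth.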

Experiments:
Experiment in all cases: NCI anticancer screen, dose series, 48 h
HCT-116 colon = system: HCT-116 colon
HOP-62 NSCLC = system: HOP-62 NSCLC
BT-549 breast = system: BT-549 breast
MALME-3M melanoma = system: MALME-3M melanoma
HCT-15 colon = system: HCT-15 colon
MDA-MB-231 breast = system: MDA-MB-231 breast
SW-620 colon = system: SW-620 colon
SNB-75 CNS = system: SNB-75 CNS
NCI-H23 lung = system: NCI-H23 lung
HT29 colon = system: HT29 colon
A549 NSCLC = system: A549 NSCLC
NCI-H460 lung = system: NCI-H460 lung
RXF 393 renal = system: RXF 393 renal
SN12C renal = system: SN12C renal
HS 578T breast = system: HS 578T breast
SF-268 CNS = system: SF-268 CNS
NCI-H226 lung = system: NCI-H226 lung
HL-60(TB) leukemia = system: HL-60(TB) leukemia
K-562 leukemia = system: K-562 leukemia
U251 CNS = system: U251 CNS
MCF7 breast = system: MCF7 breast
SK-MEL-5 melanoma = system: SK-MEL-5 melanoma
HCC-2998 colon = system: HCC-2998 colon
PC-3 prostate = system: PC-3 prostate
UACC-62 melanoma = system: UACC-62 melanoma
OVCAR-3 ovarian = system: OVCAR-3 ovarian
786-0 renal = system: 786-0 renal
OVCAR-5 ovarian = system: OVCAR-5 ovarian
MDA-MB-435 = system: MDA-MB-435
OVCAR-4 ovarian = system: OVCAR-4 ovarian
SF-539 CNS = system: SF-539 CNS
SK-OV-3 ovarian = system: SK-OV-3 ovarian
OVCAR-8 ovarian = system: OVCAR-8 ovarian
SR leukemia = system: SR leukemia
SK-MEL-2 melanoma = system: SK-MEL-2 melanoma
SNB-19 CNS = system: SNB-19 CNS
ACHN renal = system: ACHN renal
TK-10 renal = system: TK-10 renal
CAKI-1 renal = system: CAKI-1 renal
LOX IMVI melanoma = system: LOX IMVI melanoma
NCI/ADR-RES ovarian = system: NCI/ADR-RES ovarian
SK-MEL-28 melanoma = system: SK-MEL-28 melanoma
EKVX NSCLC = system: EKVX NSCLC
RPMI-8226 leukemia = system: RPMI-8226 leukemia
NCI-H522 lung = system: NCI-H522 lung
SF-295 CNS = system: SF-295 CNS
HOP-92 NSCLC = system: HOP-92 NSCLC
UO-31 renal = system: UO-31 renal
COLO 205 colon = system: COLO 205 colon
KM12 colon = system: KM12 colon
A498 renal = system: A498 renal
UACC-257 melanoma = system: UACC-257 melanoma
DU-145 prostate = system: DU-145 prostate
MOLT-4 leukemia = system: MOLT-4 leukemia
CCRF-CEM leukemia = system: CCRF-CEM leukemia
IGROV1 ovarian = system: IGROV1 ovarian

Q: What does the source list for `CN(CCCCCl)P(=O)(OCc1ccc([N+](=O)[O-])o1)OCC1OC(n2cnc([N+](=O)[O-])c2N)C(O)C1O` (configuration not stated)?
A: GI50 (HCT-116 colon): > 100 µM; TGI (HCT-116 colon): > 100 µM; GI50 (HOP-62 NSCLC): > 100 µM; TGI (HOP-62 NSCLC): > 100 µM; GI50 (BT-549 breast): > 100 µM; TGI (BT-549 breast): > 100 µM; GI50 (MALME-3M melanoma): > 100 µM; TGI (MALME-3M melanoma): > 100 µM; GI50 (HCT-15 colon): > 100 µM; TGI (HCT-15 colon): > 100 µM; GI50 (MDA-MB-231 breast): > 100 µM; TGI (MDA-MB-231 breast): > 100 µM; GI50 (SW-620 colon): > 100 µM; TGI (SW-620 colon): > 100 µM; GI50 (SNB-75 CNS): > 100 µM; TGI (SNB-75 CNS): > 100 µM; GI50 (NCI-H23 lung): > 100 µM; TGI (NCI-H23 lung): > 100 µM; GI50 (HT29 colon): > 100 µM; TGI (HT29 colon): > 100 µM; GI50 (A549 NSCLC): > 100 µM; TGI (A549 NSCLC): > 100 µM; GI50 (NCI-H460 lung): > 100 µM; TGI (NCI-H460 lung): > 100 µM; GI50 (RXF 393 renal): > 100 µM; TGI (RXF 393 renal): > 100 µM; GI50 (SN12C renal): > 100 µM; TGI (SN12C renal): > 100 µM; GI50 (HS 578T breast): > 100 µM; TGI (HS 578T breast): > 100 µM; GI50 (SF-268 CNS): > 100 µM; TGI (SF-268 CNS): > 100 µM; GI50 (NCI-H226 lung): > 100 µM; TGI (NCI-H226 lung): > 100 µM; GI50 (HL-60(TB) leukemia): > 100 µM; TGI (HL-60(TB) leukemia): > 100 µM; GI50 (K-562 leukemia): > 100 µM; TGI (K-562 leukemia): > 100 µM; GI50 (U251 CNS): > 100 µM; TGI (U251 CNS): > 100 µM; GI50 (MCF7 breast): 54.8 µM; TGI (MCF7 breast): > 100 µM; GI50 (SK-MEL-5 melanoma): 37 µM; TGI (SK-MEL-5 melanoma): > 100 µM; GI50 (HCC-2998 colon): > 100 µM; TGI (HCC-2998 colon): > 100 µM; GI50 (PC-3 prostate): > 100 µM; TGI (PC-3 prostate): > 100 µM; GI50 (UACC-62 melanoma): > 100 µM; TGI (UACC-62 melanoma): > 100 µM; GI50 (OVCAR-3 ovarian): > 100 µM; TGI (OVCAR-3 ovarian): > 100 µM; GI50 (786-0 renal): > 100 µM; TGI (786-0 renal): > 100 µM; GI50 (OVCAR-5 ovarian): > 100 µM; TGI (OVCAR-5 ovarian): > 100 µM; GI50 (MDA-MB-435): > 100 µM; TGI (MDA-MB-435): > 100 µM; GI50 (OVCAR-4 ovarian): > 100 µM; TGI (OVCAR-4 ovarian): > 100 µM; GI50 (SF-539 CNS): > 100 µM; TGI (SF-539 CNS): > 100 µM; GI50 (SK-OV-3 ovarian): > 100 µM; TGI (SK-OV-3 ovarian): > 100 µM; GI50 (OVCAR-8 ovarian): > 100 µM; TGI (OVCAR-8 ovarian): > 100 µM; GI50 (SR leukemia): 0.924 µM; TGI (SR leukemia): > 100 µM; GI50 (SK-MEL-2 melanoma): > 100 µM; TGI (SK-MEL-2 melanoma): > 100 µM; GI50 (SNB-19 CNS): > 100 µM; TGI (SNB-19 CNS): > 100 µM; GI50 (ACHN renal): > 100 µM; TGI (ACHN renal): > 100 µM; GI50 (TK-10 renal): > 100 µM; TGI (TK-10 renal): > 100 µM; GI50 (CAKI-1 renal): > 100 µM; TGI (CAKI-1 renal): > 100 µM; GI50 (LOX IMVI melanoma): > 100 µM; TGI (LOX IMVI melanoma): > 100 µM; GI50 (NCI/ADR-RES ovarian): > 100 µM; TGI (NCI/ADR-RES ovarian): > 100 µM; GI50 (SK-MEL-28 melanoma): > 100 µM; TGI (SK-MEL-28 melanoma): > 100 µM; GI50 (EKVX NSCLC): > 100 µM; TGI (EKVX NSCLC): > 100 µM; GI50 (RPMI-8226 leukemia): > 100 µM; TGI (RPMI-8226 leukemia): > 100 µM; GI50 (NCI-H522 lung): > 100 µM; TGI (NCI-H522 lung): > 100 µM; GI50 (SF-295 CNS): > 100 µM; TGI (SF-295 CNS): > 100 µM; GI50 (HOP-92 NSCLC): > 100 µM; TGI (HOP-92 NSCLC): > 100 µM; GI50 (UO-31 renal): > 100 µM; TGI (UO-31 renal): > 100 µM; GI50 (COLO 205 colon): > 100 µM; TGI (COLO 205 colon): > 100 µM; GI50 (KM12 colon): 90.7 µM; TGI (KM12 colon): > 100 µM; GI50 (A498 renal): > 100 µM; TGI (A498 renal): > 100 µM; GI50 (UACC-257 melanoma): > 100 µM; TGI (UACC-257 melanoma): > 100 µM; GI50 (DU-145 prostate): > 100 µM; TGI (DU-145 prostate): > 100 µM; GI50 (MOLT-4 leukemia): > 100 µM; TGI (MOLT-4 leukemia): > 100 µM; GI50 (CCRF-CEM leukemia): > 100 µM; TGI (CCRF-CEM leukemia): > 100 µM; GI50 (IGROV1 ovarian): > 100 µM; TGI (IGROV1 ovarian): > 100 µM
